Experimental data from patent US20200190073A1, “SUBSTITUTED SUCCINIMIDE DERIVATIVES AS PESTICIDES” (BASF SE, priority 2017, published 2020).
Read-outs that look alike come from different tables or passages of the source.

Key:
Type in all cases: in vivo
[1] = test system: Red Spider Mite (Tetranychus kanzawai); assay: B.9 Red spider mite, sprayed cowpea beans; settings: read-out: mortality in comparison with untreated controls
Method in brief: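 Potted cowpea beans aged 4-5 days were sprayed with compound in 1:1 water:acetone plus 0.01% surfactant, air dried, then infested with ≥30 mites. Kept at about 25-27° C and 50-60% relative humidity; percent mortality scored 72 h after treatment.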

[2] = test system: Boll Weevil (Anthonomus grandis); assay: B.5 Boll weevil, insect diet with eggs; settings: 120 h, read-out: mortality in comparison with untreated controls
Method in brief: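 Compounds in 75% water/25% DMSO sprayed at several concentrations (5 μl, two replicates) onto insect diet in 96-well microtiter plates holding 5-10 A. grandis eggs. After 5 days at about 25±1° C and 75±5% relative humidity, egg and larval mortality scored visually.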

[3] = test system: Rice Green Leafhopper (Nephotettix virescens); assay: B.8 Rice green leafhopper, sprayed rice seedlings; settings: read-out: mortality in comparison with untreated controls
Method in brief: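 Potted rice seedlings, washed 24 h earlier, were sprayed with 5-6 ml of compound in 1:1 acetone:water plus 0.01% surfactant. Once dry, they were caged and infested with 10 adults, then held at about 28-29° C and 50-60% RH. Percent mortality was scored at 72 h.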

[4] = test system: Orchid Thrips (Dichromothrips Corbetti); assay: B.7 Orchid thrips, floral immersion; settings: read-out: mortality in comparison with untreated controls
Method in brief: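 Orchid flower petals dipped in compound diluted in 1:1 acetone:water plus 0.01% v/v Kinetic HV, dried, then enclosed with about 20 adult lab-colony thrips. Held under continuous light at about 28 °C; percent mortality recorded 72 hours after treatment.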

[5] = test system: Southern Armyworm (Spodoptera eridania), 2nd Instar Larvae; assay: CE.7 Southern armyworm, 2nd instar larvae, comparative test; settings: foliar, 96 h, leaf dip, at 4 days, read-out: % mortality in comparison to untreated controls
Procedure: The tables show % mortality in comparison to untreated controls.
CE.7 Southern Armyworm (Spodoptera eridania), 2nd Instar Larvae
The active compounds were formulated in 50:50 acetone:water (vol) and 100 ppm Kinetica™ surfactant.
A pair of first true leaves of Sieva lima bean was dipped into the test solution and allowed to dry. The leaves were then placed in a plastic perforated zip enclosure bag and ten 2nd instar larvae were added. At 4 days, observations were made of mortality and reduced feeding.

[6] = test system: Neotropical Brown Stink Bug (Euschistus heros); assay: B.12 Neotropical brown stink bug, dipped pole bean; settings: 120 h, read-out: mortality in comparison with untreated controls
Procedure: B.12 Neotropical Brown Stink Bug (Euschistus heros)
For evaluating control of Euschistus heros through contact the test unit consisted of 100 ml disposable plastic beakers with transparent lids.
The compounds were formulated using a solution containing 50% water and 50% acetone. 50 ml of different concentrations of formulated compounds or mixtures were prepared in a glass petri dish and used for dipping three 6 cm sections of fresh pole bean. Each treatment was replicated eight times.
After application, the pole bean sections were air-dried and 5 adult E. heros placed in each beaker. The E. heros were then allowed to suck on the treated pole bean sections and incubated at 23±1° C., 50±5% RH for 5 days. E. heros mortality was then visually assessed.

[7] = test system: Tobacco Budworm (Heliothis virescens); assay: B.4 Tobacco budworm, insect diet with eggs; settings: 120 h, read-out: mortality in comparison with untreated controls
Method in brief: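 Wells held insect diet and 15–25 H. virescens eggs; compounds at several concentrations, formulated in 75:25 v/v water:DMSO, were sprayed at 10 μl onto the diet in two replicates. After 5 days at about 28±1 °C and 80±5% relative humidity, egg and larval mortality was scored visually.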

[8] = test system: Vetch Aphid (Megoura viciae); assay: B.3 Vetch aphid, broad bean leaf disks; settings: foliar, 120 h, read-out: mortality in comparison with untreated controls
Method in brief: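 Broad bean leaf disks sprayed with compounds in 25% DMSO/water at various concentrations, two replicates, then air-dried and infested with 5-8 adult Megoura viciae (contact/systemic exposure). After 5 days at about 23±1 °C and 50±5% RH, mortality and fecundity scored visually.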

[9] = test system: Green Soldier Stink Bug (Nezara viridula); assay: B.11 Green soldier stink bug, sprayed soybean pods; settings: 120 h, read-out: mortality in comparison with untreated controls
Method in brief: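 Ten late 3rd-instar N. viridula on soybean pods in Petri dishes were sprayed with compound in 1:1 water:acetone plus 0.01% surfactant. Dishes were held at about 25° C. Percent mortality was scored after 5 days.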

[10] = 2500 ppm, egg and larval mortality, 5 days

| Structure (SMILES) | mortality at 300 ppm ([1]; 72 h) | mortality at 2500 ppm [2] | mortality at 300 ppm ([3]; 72 h) | mortality at 300 ppm ([4]; Thrips, 72 h) | mortality at 3 ppm [5] | mortality at 500 ppm [6] | mortality at 2500 ppm [7] | mortality at 2500 ppm [8] | mortality at 300 ppm [9] | mortality at 300 ppm ([1]; 300 ppm, 72 hours after treatment) | mortality at 2500 ppm [2, 10] | mortality at 300 ppm ([3]; 300 ppm, adults on sprayed rice seedlings, after 72 hours) | mortality at 300 ppm ([4]; 300 ppm, adult thrips, 72 hours after treatment) | mortality at 2500 ppm [7, 10] | mortality at 2500 ppm ([8]; 2500 ppm, sprayed leaf disks, 5 days) | mortality at 300 ppm ([9]; 300 ppm, late 3rd instar, after 5 days) |
| --- | --- | --- | --- | --- | --- | --- | --- | --- | --- | --- | --- | --- | --- | --- | --- | --- |
| CN1C(=O)CC(NC(=O)c2ccc(C3=NOC(c4cc(Cl)c(F)c(Cl)c4)(C(F)(F)F)C3)cc2Cl)C1=O (centres unmarked) [Compound I-1-2, 2-Chloro-4-[5-(3,5-dichloro-4-fluoro-phenyl)-5-(trifluoromethyl)-4H-isoxazol-3-yl]-N-(1-methyl-2,5-dioxo-pyrrolidin-3-yl)benzamide] | > 75% | > 75% | > 75% | > 75% | 100% | > 75% | > 75% | > 75% | > 75% |  |  |  |  |  |  |  |
| CCN1C(=O)CC(NC(=O)c2ccc(C3=NOC(c4cc(Cl)c(F)c(Cl)c4)(C(F)(F)F)C3)cc2Cl)C1=O (centres unmarked) [Compound I-1-3] | > 75% | > 75% | > 75% | > 75% | 100% |  | > 75% | > 75% | > 75% |  |  |  |  |  |  |  |
| CN1C(=O)CC(NC(=O)c2ccc(C3=NOC(c4cc(Cl)c(F)c(Cl)c4)(C(F)(F)F)C3)c3c2CCC3)C1=O (centres unmarked) [Compound I-1-10] | > 75% | > 75% | > 75% | > 75% | 100% | > 75% | > 75% | > 75% | > 75% |  |  |  |  |  |  |  |
| CN1C(=O)C[C@@H](NC(=O)c2ccc(C3=NOC(c4cc(Cl)c(F)c(Cl)c4)(C(F)(F)F)C3)cc2Cl)C1=O (some centres unmarked) [Compound I-1-13] | > 75% | > 75% | > 75% | > 75% |  | > 75% | > 75% | > 75% | > 75% |  |  |  |  |  |  |  |
| CCN1C(=O)C[C@@H](NC(=O)c2ccc(C3=NOC(c4ccc(F)c(Cl)c4)(C(F)(F)F)C3)cc2Cl)C1=O (some centres unmarked) [Compound I-1-53] |  |  |  |  |  |  |  |  |  | > 75% | > 75% | > 75% | > 75% | > 75% | > 75% | > 75% |
